{"source": "paper PMC6588697", "about": "“Lugdunin amplifies innate immune responses in the skin in synergy with host- and microbiota-derived factors” (Nature Communications, 2019)", "key": {"PBMCs": {"test_system": "PBMCs", "test": "CXCL8 expression in PBMCs (qRT-PCR)", "format": "cell-based, human", "conditions": "5 h, two technical replicates", "procedure": "Quantitative reverse transcription-polymerase chain reaction (qRT-PCR) was performed in 10 µL reaction volume with SYBR^TM Green PCR Master Mix (Thermo Fisher) according to the manufacturer’s instructions using a LightCycler 96 (Roche Life Science). The initial denaturation step was at 95 °C for 5 min, followed by 40 cycles with 10 s each for the denaturation step at 95 °C, the annealing at individual temperature, and the elongation at 72 °C. Primer sequences and respective annealing temperatures are listed in Supplementary Table 1.\nHuman PBMCs were isolated from the peripheral blood of healthy donors upon obtaining informed consent by Ficoll-Histopaque (Biochrom) gradient centrifugation. Cells were washed once in PBS and adjusted to a cell number of 1 × 10^6 mL^−1 in RPMI-1640 medium (Gibco/Life Technologies) containing 10% FBS (Biochrom/Merck Millipore). […]\n31 g+h+i: HNEpCs (b), HTEpCs (c) or PBMCs (d) were treated with increasing\n32 concentrations of lugdunin (grey bars) or 100 ng/mL Pam2Cys or Pam3Cys (white\n33 bars) as positive controls for 5 hours and subsequently expression of CXCL8 was\n34 analyzed and normalized to actin. Black bar: medium control. Shown is one\n35 representative experiment of three independent experiments with two technical\n36 replicates +/-s.e.m. Significant differences to control treatments were analyzed by\n37 ordinary one-way ANOVA followed by Dunnett’s multiple comparisons test (*P<0.05; […]"}, "HNEpCs": {"test_system": "HNEpCs", "test": "Cytokine release into HNEpC supernatant (LEGENDplex / ELISA)", "format": "cell-based, human", "conditions": "5 h, lugdunin 2 µM or Pam2Cys 100 ng/mL, two technical replicates, Fig 1f"}, "HTEpCs": {"test_system": "HTEpCs", "test": "Cytokine release into HTEpC supernatant (LEGENDplex / ELISA)", "format": "cell-based, human", "conditions": "5 h, lugdunin 2 µM or Pam2Cys 100 ng/mL, two technical replicates, Fig 1f"}, "HEK293-TLR2 cells": {"test_system": "HEK293-TLR2 cells", "test": "CXCL8 release by HEK-TLR2 cells (LEGENDplex)", "format": "cell-based, human", "procedure": "Fig. 2 Induction of chemokine (C-X-C motif) ligand 8/macrophage inflammatory protein-2 (CXCL8/MIP-2) by lugdunin is TLR2/MyD88-dependent. a HEK-control or HEK-TLR2 cells were treated with 2 μM lugdunin for 5 h and subsequently the CXCL8 concentration in the supernatant was analyzed by LEGENDplex^TM (BioLegend). Shown is one representative experiment of three independent experiments with two technical replicates ± s.e.m. b HEK-control or HEK-TLR2 cells were treated with increasing concentrations of lugdunin for 5 h and subsequently expression of CXCL8 was analyzed and normalized to actin. Shown is one representative experiment of three independent experiments with two technical replicates ± s.e.m. c Schematic overview of the mouse experiments: 6–8-week-old female C5BL/6 WT, MyD88-knockout (ko), or 5xTLR-ko mice were epicutaneously treated with 1.5 µg lugdunin or phosphate-buffered saline (PBS) as a control. […] Significant differences to control treatments were analyzed by an unpaired two-tailed t test (*P < 0.05; **P < 0.01; ***P < 0.001). f Representative MIP-2-stained paraffin-embedded mouse skin sections. […]\nSupplementary Figure 2: CXCL8 controls and other cytokines in mouse skin 46 a: HEK-control cells or HEK -TLR2 cells were treated with 100 ng/mL Pam2Cys for 5 47 hours and subsequently the CXCL8 concentration in the supernatant was analyzed. […]"}, "mouse skin": {"test_system": "mouse skin", "test": "Immunohistochemistry of mouse skin sections (LL-37, MIP-2, MPO)", "format": "in vivo", "procedure": "For immunohistochemical stainings of mouse skin, […] tissue sections were de-paraffinized. For MPO staining, antigen retrieval was performed in EDTA buffer at pH 9 (Thermo Fisher Scientific) for 5 min, and for MIP-2 and LL-37, citrate buffer at pH 6 for 9 min was used. Antigen retrieval was performed in a pressure cooker before a slow cooling down of the samples in the buffer. Afterwards, tissue sections were washed in PBS and blocked in 5% donkey serum in PBS containing 0.05% Triton X-100 for 90 min. For MPO staining, tissue sections were subsequently incubated overnight at 4 °C in a humid chamber with a MPO-specific antibody (R&D Systems, Cat#AF3667) diluted 1:50 in a blocking buffer. For MIP-2 and LL-37 staining, tissue sections were first incubated with primary enhancer (Lab Vision™ UltraVision™ LP Detection System, Thermo Fisher Scientific) for 20 min at room temperature, washed, and then incubated with AP polymer (Lab Vision™ UltraVision™ LP Detection System, Thermo Fisher Scientific) for 30 min at room temperature in a humid chamber, followed by incubation with the primary antibodies MIP-2 (Thermo Scientific, Cat#701126, 1:10 in blocking buffer) and LL-37 (Novus Biologicals, Cat#NB100-98689, 1:200 in blocking buffer) overnight at 4 °C in a humid chamber. The next day, tissue sections were washed and incubated with a 1:250 dilution of alkaline phosphatase-coupled secondary antibody (Novus Biologicals) for 90 min in a humid chamber at room temperature. After washing in PBS, staining was performed by using the Lab Vision^TM liquid fast red substrate system (Thermo Fisher Scientific) according to the manufacturer’s instructions. After washing in water, hematoxylin–eosin staining (Agilent/Dako) was performed for 2 min. After another washing step in water, tissue sections were mounted with Kaiser’s glycerol gelatine (Merck)."}, "[1]": {"test_system": "primary human neutrophils, erythrocytes, HL60", "conditions": "cited from earlier work", "text": "Lugdunin represents the founding member of the new class of cyclic thiazolidine-containing peptide antibiotics. […] In our previous work, we have shown that lugdunin treatment led to a strong reduction and even complete eradication of viable S. aure ..."}}, "note": "Several values for one entry are separate records, joined by “and”; a condition that tells them apart may be missing. Equal values may be shown once.", "data": [{"substance": "Lugdunin", "values": [{"measurement": "CXCL8 fold induction", "setting": "PBMCs; lugdunin 0.5 µM, sheet Supp Fig 1h", "result": "0.8179 and 0.8236"}, {"measurement": "CXCL8 fold induction", "setting": "PBMCs; lugdunin 1 µM", "result": "1.223 and 1.275"}, {"measurement": "CXCL8 fold induction", "setting": "PBMCs; lugdunin 2 µM", "result": "2.085 and 1.84"}, {"measurement": "CXCL8 fold induction", "setting": "PBMCs; lugdunin 3 µM", "result": "2.121 and 2.305"}, {"measurement": "CXCL8 fold induction", "setting": "PBMCs; lugdunin 5 µM", "result": "3.021 and 3.221"}, {"measurement": "CXCL8 fold induction", "setting": "PBMCs; lugdunin 10 µM", "result": "3.494 and 3.593"}, {"measurement": "CXCL8 concentration in supernatant", "setting": "HNEpCs", "result": "421.035 and 417.001"}, {"measurement": "CXCL8 concentration in supernatant", "setting": "HTEpCs", "result": "214.845 and 210.300"}, {"measurement": "CXCL8 concentration in supernatant", "setting": "HEK293-TLR2 cells; HEK-TLR2 cells, lugdunin 2 µM, 5 h, two technical replicates, Fig 2a", "result": "564.521 and 585.121"}, {"measurement": "CXCL8 induction level in HEK-TLR2 cells, times lower than Pam2Cys/Pam3Cys-mediated TLR2 activation", "setting": "HEK293-TLR2 cells; text to Fig 2a and Supp Fig 2", "result": 1000, "unit": "fold"}, {"measurement": "MPO-positive cells in mouse skin sections (IHC, in words)", "setting": "mouse skin; epicutaneous application, Fig 3e", "result": "recruitment of MPO-positive cells into the dermis"}, {"measurement": "LL-37 in mouse skin sections (IHC, in words)", "setting": "mouse skin; epicutaneous application, Supp Fig 1", "result": "expression of LL-37 in keratinocytes was confirmed"}, {"measurement": "MIP-2 in mouse skin sections (IHC, in words)", "setting": "mouse skin; epicutaneous treatment, Fig 2f", "result": "MIP-2 production by keratinocytes in the epidermis and the hair follicles"}, {"measurement": "lysis of primary human neutrophils, erythrocytes or HL60 (in words)", "setting": "[1]", "result": "did neither cause lysis"}]}]}
